Experimental findings from paper PMC11040934, “PI3Kγδ inhibition suppresses key disease features in a rat model of asthma” (Respiratory Research, 2024) are described below.

Data set [1] can be described thus: Human plasma protein binding and unbound fraction in assay media. It counts as in vitro ADME. The method, then:
PI3K δ assay: single cell suspension was obtained from the spleen of male Sprague Dawley rat; cells were cultured in RPMI containing heat-inactivated 10% FBS, pre-treated (1 hr., 37 °C, 5% CO2) with vehicle DMSO or PI3K inhibitors, followed by stimulation with AffiniPure F(ab’)2 Fragment Goat Anti-Rat IgM, μ chain specific, Jackson Immunoresearch (112–006-075) at 5 μg/mL (EC80 determined in house; 20–22 hrs). Then, cells were washed with FACS buffer (2% FBS, […]) and stained (15 mins, 4 °C) with Fc block (1:100, 550,273, BD bioscience), LIVE/DEAD Fixable Aqua Dead Cell Stain Kit (L34957, Invitrogen, 1:300), CD45R (B220)-PeCy7 (HIS24) (25–0460-82, eBioscience, 1:100), CD3-AF647 (IF4) (201,408, Biolegend, 1:100), CD86-FITC (24F) (200,305, Biolegend, 1:50). Cells were acquired on the Flow Cytometer (BD LSRFortessa™) and analysed using FlowJo 9.9 software (TreeStar). FACS gating strategy: lymphocytes (FSC-A vs SSC-A), doublets exclusion (FSC-W vs FSC-H), live cells (Aqua-530-), B cell identification CD3- B220 + % of positive B cells for CD86. IC50 values were determined in Graph Pad through a nonlinear fit on log transform data: log inhibitor vs response, variable slope, 4 parameters. Fraction unbound in in vitro assay is calculated using the following equation: fu^′=DF·fup/1+DF-1·fup where fu’ is the fraction unbound in assay media; fup is the experimentally determined fraction unbound in undiluted human plasma; DF is the dilution factor (fold difference between protein concentration in human plasma and assay media, using an albumin concentration of 600 μM (40 g/L) for undiluted plasma) Table 2.

The target of the next data set is rat PI3Kγ (Rattus norvegicus, UniProt D3ZFJ0). Description: PI3K γ assay: CXCL1/CINC-1-stimulated CD11b expression on rat whole blood neutrophils (FACS). The note with it: mean ± SEM, n = 3. Format: cell-based. How it is done:
PI3K γ assay: whole blood from male Sprague Dawley rat was collected in heparin coated tubes and pre-treated (1 hr., 37 °C, 5% CO2) with vehicle DMSO or PI3K inhibitors followed by stimulation with Rat CXCL1/CINC-1 (515-CN-050, R&D) at 500 ng/mL (EC80 determined in house; 1 hr., RT). Next, cells were stained with Fc block (550,273, BD bioscience, 1:100; 20 mins, RT), CD45R-B220-PeCy7 (HIS24) (25–0460-82, eBioscience, 1:100), CD43-PE (W3/13) (202,812, Biolegend, 1:100), HIS48-FITC (11–0570-82, eBioscience, 1:100), CD11b-APC (562,102, BD Bioscience, 1:100). Cells were lysed and fixed with BD FACS lysing solution (349,202, BD Biosciences; 45 mins, RT) before FACS acquisition (BD LSRFortessa™). Data were analysed using FlowJo 9.9 software (TreeStar). FACS gating strategy: lymphocytes (FSC-A vs SSC-A), doublets exclusion (FSC-W vs FSC-H), neutrophil identification B220-, HIS48hi, CD43hi, SSC-Ahi, geom. MFI for CD11b on neutrophils. IC50 values were determined in Graph Pad through a nonlinear fit on log transform data: log inhibitor vs response, variable slope, 4 parameters. Fraction unbound in diluted whole blood is calculated using the following equation: fu^′=DF·fub/1+DF-1·fub where fu’ is the fraction unbound in diluted whole blood; fub is the fraction unbound in undiluted whole blood; DF is the dilution factor. Fraction unbound in 100% whole blood (fub) is calculated as fup/BP, where fup is the experimentally determined fraction unbound in undiluted plasma and BP is the experimentally determined blood to plasma partition ratio of drug Table 1.

For data set [2], the system named is JAK/STAT and NF-κB pathways. Nature of the data set: Rat model of allergic asthma: lung pSTAT3, pSTAT5a,b and NF-κB p65, pathway specificity. It counts as in vivo, Brown Norway rat. The note with it: i.t. 1 hr before OVA challenge; lung 2 hrs after challenge.
Method: Male, adult, Brown Norway rats were obtained from Charles River Germany at a body weight range of 250-300 g. Animals were housed in temperature controlled individually ventilated cages in groups of 4 with food and water provided ad libitum. Animals underwent acclimatisation for at least 1 week prior to experimentation.
Initially a time course study was performed, followed by a characterisation study with compound & clinical comparator. […]
10 μg of protein from lung tissue extract were utilized in pAkt (T308); pSTAT3, pSTAT4 & STAT5a, b (Phospho-STAT Panel kit) MSD Assay plates (Meso Scale Delivery, USA) and run according to manufacturers’ instructions. Arbitrary electrochemiluminescence signals were read, the blank subtracted and values determined in each plate using a MSD S-Plex plate reader (Meso Scale Delivery, USA). […]
10 μg (5 μL) of nuclear tissue extract were utilized in NF-κB p65 TransAm Activation Assays (Active Motif, USA) and run according to manufacturer’s instructions. Optical density was determined utilizing a spectrophotometer, the blank was subtracted, and values determined (450 nm; Spectromax, UK).

Read-outs that look alike come from different tables or passages of the source.

rat PI3Kγ, sequence (D3ZFJ0 1-1102): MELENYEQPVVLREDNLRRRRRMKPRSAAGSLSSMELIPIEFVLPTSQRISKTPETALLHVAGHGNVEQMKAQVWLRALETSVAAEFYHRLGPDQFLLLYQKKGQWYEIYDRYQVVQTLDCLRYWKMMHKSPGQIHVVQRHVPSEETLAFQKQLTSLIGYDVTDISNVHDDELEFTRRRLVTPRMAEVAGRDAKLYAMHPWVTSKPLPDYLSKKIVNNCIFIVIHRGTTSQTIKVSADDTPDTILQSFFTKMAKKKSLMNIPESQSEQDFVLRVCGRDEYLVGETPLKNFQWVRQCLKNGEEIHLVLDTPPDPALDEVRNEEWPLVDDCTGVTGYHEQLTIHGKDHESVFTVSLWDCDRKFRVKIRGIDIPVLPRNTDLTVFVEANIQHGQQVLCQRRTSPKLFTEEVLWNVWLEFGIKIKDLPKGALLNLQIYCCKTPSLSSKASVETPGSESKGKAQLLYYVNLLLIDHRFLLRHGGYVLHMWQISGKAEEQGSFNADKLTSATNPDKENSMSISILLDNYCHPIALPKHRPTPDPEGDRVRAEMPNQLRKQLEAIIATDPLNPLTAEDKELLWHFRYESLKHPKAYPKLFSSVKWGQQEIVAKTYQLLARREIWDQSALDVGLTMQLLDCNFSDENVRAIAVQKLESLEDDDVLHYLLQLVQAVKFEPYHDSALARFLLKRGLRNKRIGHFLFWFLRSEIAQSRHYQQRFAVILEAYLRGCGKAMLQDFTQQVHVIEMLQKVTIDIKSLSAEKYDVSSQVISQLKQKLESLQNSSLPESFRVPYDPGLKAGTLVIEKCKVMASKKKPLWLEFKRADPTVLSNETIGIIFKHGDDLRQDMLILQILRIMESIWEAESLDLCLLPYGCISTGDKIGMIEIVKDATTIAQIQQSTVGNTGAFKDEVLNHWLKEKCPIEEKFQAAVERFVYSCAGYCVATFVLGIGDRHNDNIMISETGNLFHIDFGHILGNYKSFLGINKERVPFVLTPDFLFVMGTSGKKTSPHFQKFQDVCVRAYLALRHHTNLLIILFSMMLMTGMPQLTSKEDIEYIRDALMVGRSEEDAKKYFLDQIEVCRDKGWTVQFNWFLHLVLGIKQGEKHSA

As a reminder, the IC50 is the midpoint of a concentration-inhibition curve. For the compound `Cc1nc(Nc2cccc(N3CCCC3=O)n2)sc1-c1cc2c(c(S(C)(=O)=O)c1)C(=O)N([C@@H](C)C1CC1)C2` [AZD8154], the fraction unbound in data set [1] (human plasma, fraction unbound, read-out: Human ppb (fu, %)) was determined as 0.0063; in data set [1] (human, assay media (PI3K δ assay), fraction unbound in assay media (δ assay, RPMI 10% FBS), read-out: Fu’) it was 0.06. Also, the IC50 was 28.7 ± 4.1 nM on rat PI3Kγ (CD11b expression on neutrophils, read-out: rat γ total IC50) and 0.54 ± 0.08 nM at rat PI3Kγ (corrected for protein binding in the assay, read-out: rat γ free IC50). The “JAK/STAT pathway (pSTAT3, pSTAT5a,b) in lung tissue” value in data set [2] was “minimal impact”. Besides, the “NF-κB pathway (NF-κB p65) in lung nuclear extract” value in data set [2] is listed as “minimal impact”.
